Tested on: db/db mice
Test: Oral postprandial glycemia in db/db mice (experimental model of type II diabetes)
Assay type: in vivo
Conditions: 100 mg/kg p.o., db/db mice fasted 20 h then fed, compared to vehicle group; for decrease in blood glucose level: 4 hrs after administration; for decrease in insulin level: serum insulin (ELISA) 4 hrs after administration
Experimental: In Vivo Assay: Experimental Model of Type II Diabetes (Oral Postprandial Glycemia in db/db Mice)
The following assay aims at determining the anti-diabetic effect of the test compounds of formula (I) in a model of postprandial glycemia in db/db mice, in vivo.
The assay was performed as follows:
A total of 18 db/db mice (about 8-9 weeks; obtained from IFFACREDO, l'Arbreste, France) were fasted during 20 hours.
3 groups, each consisting of 6 animals were formed: • Group 1: The animals were administered (per os) a dose of […] of vehicle. • Group 2: The animals were administered (per os) a dose of 50 mg/kg of the test compound according to formula (I). • Group 3: The animals were administered (per os) a dose of 100 mg/kg of the test compound according to formula (I).
After oral administration of the compounds of formula (I) solubilized or suspended in CarboxyMethylCellulose (0.5%), Tween 20 (0.25%) and water as vehicle, the animals had access to commercial food (D04, UAR, Villemoisson/Orge, France) ad libitum. The diabetic state of the mice was verified by determining the blood glucose level before drug administration. Blood glucose and serum insulin levels were then determined 4 hrs after drug administration.
The determination of the blood glucose level was performed using a glucometer (Precision Q.I.D., Medisense, Abbot, ref. 212.62.31).
The determination of the Insulin level was performed using an ELISA kit (Crystal CHEM, Ref. INSK R020).
Changes in blood glucose and serum insulin of drug treated mice were expressed as a percentage of control (group 1: vehicle treated mice).

| Structure (SMILES) | decrease in blood glucose level [%] | decrease in insulin level [%] |
| --- | --- | --- |
| N#CC(c1ccnc(NCCc2cccnc2)n1)c1nc2ccccc2s1 (stereo not shown) [1,3-benzothiazol-2-yl(2-{[2-(3-pyridinyl)ethyl]amino}-4-pyrimidinyl)acetonitrile] | 38 | 64 |
| N#CC(c1ccnc(OCc2ccc(CN3CCOCC3)cc2)n1)c1nc2ccccc2s1 (stereo not shown) [1,3-benzothiazol-2-yl(2-{[4-(morpholin-4-ylmethyl)benzyl]oxy}-pyrimidin-4-yl)acetonitrile] | 22 | 36 |
